In patent publication EP3354264A1, “PROPHYLAXIS AND TREATMENT OF NEISSERIA GONORRHOEAE EYE INFECTION” (Kingston University Higher Education Corporation, priority 2017, dated 2018):
In brackets after ≈: the same amount, converted by molar mass. Like-named read-outs stand apart in the source and are kept apart here.

Assays:
[1] = test system: Neisseria gonorrhoeae strain NCCP11945; assay: Growth inhibition screen of organic acids; assay type: cell-based; details: strain NCCP11945, in vitro, 1 mM
Protocol: (§1) The well characterised N. gonorrhoeae strain NCCP11945 (Chung GT et al. (2008) Complete genome sequence of Neisseria gonorrhoeae NCCP11945. Journal of Bacteriology 190: 6035-6036) was used in the screening stage of this experiment. Eight isolates that were obtained from Public Health England from various European locations were used in the log reduction assays. All isolates were first cultured for 24 hours prior to testing by plating on GC solid medium (Oxoid Limited, Hampshire, UK) with Kellogg supplements and incubating at 37 °C, 5% CO2 (Kellogg DS, Jr., et al., (1963), J Bacteriol 85: 1274-1279).
(§2) A full list of all the organic acids tested in this study is in Table 1. The tested compounds include saturated and unsaturated fatty acids, monoglycerides, dicarboxylic acids, and fatty acid sodium salts. All compounds investigated were resuspended at a concentration of 100 mM in ethanol unless stated. All chemicals were obtained from Sigma-Aldrich (Poole, Dorset, UK).
Other organic acids were also active at this concentration, as noted in Table 1.

[2] = test system: Neisseria gonorrhoeae strain NCCP11945; assay: Measurement of bactericidal action (log reduction); assay type: cell-based; details: for log reduction at 1000 µM: Neisseria gonorrhoeae
Protocol: as §1, §2
(§3) Log reductions were done using the same method as in Bergsson et al., (1999), Antimicrob Agents Chemother 43: 2790-2792. Briefly, cells were suspended in GC broth (18 g/L GC Base (Oxiod, Limited) with added defined supplements) to an optical density of 0.3 at 520 nm which is approximately equivalent to 107 - 108 cells per millilitre (Macfarlane DE et al. (1980) Improved media for the culture of Neisseria gonorrhoeae. J Med Microbiol 13: 597-607). Five hundred microliters of the suspension was then added to 5 µl of the 100 mM stocks to give a final concentration of 1 mM. A negative control was also done to calculate the reduction in bacterial titre by adding 500 µl to 5 µl ethanol. The tubes were then mixed at room temperature for two minutes and immediately diluted in a 10 fold dilution series down to 10-4. The dilutions were plated by spreading 10 µl on a quarter of a plate and 100 µl of the neat solution was also plated. Plates were incubated at 37 °C for 48 hours. All samples were plated in duplicate. A reduction in viable cell count by more than 4 log10 was deemed to be bactericidal and was selected for further investigation. Bactericidal compounds were then tested at concentrations of 0.75, 0.5, and 0.25 mM (0.125 mM was also used in some potent compounds) to find the minimum bactericidal concentration. Additional testing at lower concentrations was also done on the eight clinical isolates of European origin.

[3] = in vitro; assay type: cell-based, bovine; details: red blood cells, bovine RBCs, shaken 1 hour at room temperature
Protocol: (§4) Whole bovine blood was obtained from a local slaughter house (ABP, Guildford, Surrey, UK), adding 90 ml blood to 10 ml of 110 mM tri-sodium citrate anticoagulant. RBCs were isolated the same day. The RBCs were washed by three repeats of centrifugation (1,500 x g for 10 minutes) and resuspension in PBSG. Testing was done following European Union Reference Laboratory for alternatives to animal testing (EURL-ECVAM) guidelines (Lewis RW (2010) DB-ALM Protocol No. 99: Red blood cell (RBC) Test System. EURL ECVAM). The organic acids were made up in DMSO and diluted to a DMSO concentration maximum of 10 % (v/v). Samples were shaken at room temperature for 1 hour and then centrifuged at 10,000 rpm for 2 minutes. An aliquot of 750 µl of the supernatant was taken and absorbance at […] tested.

[4] = test system: panel of nine N. gonorrhoeae isolates (strain NCCP11945 and eight isolates from Public Health England); assay: Minimum bactericidal concentration by log reduction, panel of isolates; assay type: cell-based; details: Neisseria gonorrhoeae, 2 min; lowest concentration tested giving an average 4 log10 reduction after two minute exposure; nine isolates; read-out: Minimum bactericidal concentration
Protocol: as §1, §3
As shown by the results in Table 3 which presents data on the log reductions of bacterial cell counts, against a panel of nine N. gonorrhoeae isolates (strain NCCP11945 and eight isolates from Public Health England), myristoleic acid (C14:1cΔ9), palmitoleic acid (C16:1cΔ9), linolenic acid (C18:3cΔ9,12,15), and monocaprin (C10) have a minimal bactericidal concentration, defined as the lowest concentration tested to give an average 4 log10 reduction in bacterial count after a two minute exposure, of 0.5 mM. Against a panel of nine N. gonorrhoeae isolates, lauric acid (C12:0), tridecanoic acid (C13:0), and sodium dodecanoate have a minimal bactericidal concentration of 0.75 mM.

[5] = test system: Neisseria gonorrhoeae strain NCCP11945; assay: Log reduction in artificial tear fluid; assay type: cell-based; details: artificial tear fluid containing calcium chloride; two minute exposure; Figure 8
Protocol: Artificial tear fluid was made as in Mirejovsky et al., Optometry and Vision Science, (1991), 68: 858-864. […] Neisseria gonorrhoeae strain NCCP11945 was used in these experiments. As the previous log reductions, […] were suspended in GC broth. The cell suspension was centrifuged to remove the culture medium and the bacteria resuspended in the tear fluid. This was then added to the concentrated organic acid candidates. The cells were then counted again after two minute exposure to estimate any reduction due to the exposure to the fatty acid.
In a first experiment, the artificial tear fluid formulation includes calcium chloride to mimic the calcium in natural tears. As shown by the results in Figure 8, the anti-gonococcal properties of myristoleic acid (C14:1cΔ9), palmitoleic acid (C16:1cΔ9), linolenic acid (C18:3cΔ9,12,15), and monocaprin(C10) are retained in the artificial tear fluid formulation containing calcium chloride.
In a second experiment, calcium chloride was omitted from the artificial tear fluid formulation. The results in Figure 9 indicate that the anti-gonococcal properties of lauric acid (C12:0), tridecanoic acid (C13:0), and sodium dodecanoate were retained in the artificial tear fluid formulation without.

[6] = test system: RBCs; assay: in vitro; assay type: cell-based, bovine; details: at their minimum bactericidal concentration
Protocol: as §4

[7] = 2 min, strain NCCP11945, 1 mM, 2 minutes, read-out: Log reduction of Neisseria gonorrhoeae
[8] = NCCP11945, 2 min, read-out: Log reduction of Neisseria gonorrhoeae, strain NCCP11945, 1 mM, 2 minutes
[9] = strain NCCP11945, 1 mM, 2 minutes

CCCCCCCC(=O)OCC(O)CO (racemic) [1-Octanoyl-rac-Glycerol C8, 1-Octanoyl-rac-Glycerol]
Inhibits growth of Neisseria gonorrhoeae [1]: Yes

O=C(O)CCCCC(=O)O [Adipic acid]
Inhibits growth of Neisseria gonorrhoeae [1]: No

CCCCC/C=C\C/C=C\C/C=C\C/C=C\CCCC(=O)O [Arachidonic acid 20:4 cΔ5,8,11,14, Arachidonic acid]
Inhibits growth of Neisseria gonorrhoeae [1]: Yes

O=C(O)CCCCCCCC(=O)O [Azelaic acid]
Inhibits growth of Neisseria gonorrhoeae [1]: No

CCCCCCCCCC(=O)O [Capric acid/Decanoic acid 10:0, Decanoic acid]
Inhibits growth of Neisseria gonorrhoeae [1]: No

CCCCCCCC(=O)O [Caprylic/Octanoic acid 8:0, Octanoic acid]
Inhibits growth of Neisseria gonorrhoeae [1]: No

CCCCCC/C=C\CCCCCCCCCC(=O)O [Cis-Vaccenic acid 18:1 cAll, Cis-Vaccenic acid]
Inhibits growth of Neisseria gonorrhoeae [1]: No

CCCCCCCC/C=C/CCCCCCCC(=O)O [Elaidic acid 18:1 tΔ9, Elaidic acid]
log reduction at 1000 µM [2, 7]: 0.5
Inhibits growth of Neisseria gonorrhoeae [1]: Yes

CCCCCCCC/C=C\CCCCCCCCCCCC(=O)O [Erucic acid 22:1 cΔ13, Erucic acid]
log reduction at 1000 µM [2, 8]: 0
Inhibits growth of Neisseria gonorrhoeae [1]: Yes

CCCCCCCCCCCCCCCCC(=O)O [Heptadecylic acid 17:0, Heptadecylic acid]
Inhibits growth of Neisseria gonorrhoeae [1]: No

CCCCCCCCCCCCCC(=O)OC(C)C [Isopropyl myristate]
Inhibits growth of Neisseria gonorrhoeae [1]: No

CCCCCCCCCCCCCCCC(=O)OC(C)C [Isopropyl palmitate]
Inhibits growth of Neisseria gonorrhoeae [1]: No

CCCCC/C=C\C/C=C\CCCCCCCC(=O)O [Linoleic acid 18:2 cΔ9,12, Linoleic acid]
log reduction at 1000 µM [2, 7]: 1.6
Inhibits growth of Neisseria gonorrhoeae [1]: Yes

CC/C=C\C/C=C\C/C=C\CCCCCCCC(=O)O [Linolenic acid 18:3 cΔ9,12,15, α-linolenic acid]
HC50 at 1 h ([3]; read-out: H50): 70 to 140 µM
HC50 at 1 h ([3]; read-out: H50 (mg/L)): 20 to 40 mg/L
MBC [4]: 500 µM (≈ 139 µg/mL)
log reduction at 1000 µM [2, 7]: > 6
Log reduction of Neisseria gonorrhoeae [2, 9]: able to cause a log reduction
Inhibits growth of Neisseria gonorrhoeae [1]: Yes
Inhibits growth of Neisseria gonorrhoeae ([1]; listed as linolenic acid): able to inhibit growth
anti-gonococcal properties in artificial tear fluid [5]: retained

CCCCCCCCCCCC(=O)OCC(O)CO (centres unmarked) [Monolaurin C12, Monolaurin]
log reduction at 1000 µM [2, 8]: 3.4
Inhibits growth of Neisseria gonorrhoeae [1]: Yes

CCCCCCCCCCCCCC(=O)OCC(O)CO (centres unmarked) [Monomyristin C14, Monomyristin]
log reduction at 1000 µM [2, 8]: 0.6
Inhibits growth of Neisseria gonorrhoeae [1]: Yes

CCCCCCCCCCCCCC(=O)O [Myristic acid 14:0, Myristic acid]
Log reduction of Neisseria gonorrhoeae [2, 9]: 1.5
Inhibits growth of Neisseria gonorrhoeae [1]: Yes

CCCC/C=C\CCCCCCCC(=O)O [Myristoleic acid 14:1 cΔ9, (Z)-tetradec-9-enoic acid]
HC50 at 1 h ([3]; read-out: H50): 2600 to 3500 µM
HC50 at 1 h ([3]; read-out: H50 (mg/L)): 600 to 800 mg/L
RBC lysis assay prediction of irritation [6]: not irritating
MBC [4]: 500 µM (≈ 113 µg/mL)
log reduction at 1000 µM [2, 7]: > 6
Log reduction of Neisseria gonorrhoeae [2, 9]: able to cause a log reduction
Inhibits growth of Neisseria gonorrhoeae [1]: Yes
Inhibits growth of Neisseria gonorrhoeae ([1]; listed as myristoleic acid): able to inhibit growth
anti-gonococcal properties in artificial tear fluid [5]: retained

CCCCCCCC/C=C\CCCCCCCC(=O)O [Oleic acid 18:1 cΔ9, Oleic acid]
log reduction at 1000 µM [2, 7]: 1
Inhibits growth of Neisseria gonorrhoeae [1]: Yes

CCCCCCCCCCCCCCCC(=O)O [Palmitic acid 16:0, Palmitic acid]
Inhibits growth of Neisseria gonorrhoeae [1]: No

CCCCCC/C=C\CCCCCCCC(=O)O [Palmitoleic acid 16:1 cΔ9, (9Z)-hexadec-9-enoic acid]
HC50 at 1 h ([3]; read-out: H50): 80 to 160 µM
HC50 at 1 h ([3]; read-out: H50 (mg/L)): 20 to 40 mg/L
MBC [4]: 500 µM (≈ 127 µg/mL)
log reduction at 1000 µM [2, 7]: > 6
Log reduction of Neisseria gonorrhoeae [2, 9]: able to cause a log reduction
Inhibits growth of Neisseria gonorrhoeae [1]: Yes
Inhibits growth of Neisseria gonorrhoeae ([1]; listed as palmitoleic acid): able to inhibit growth
anti-gonococcal properties in artificial tear fluid [5]: retained

CCCCCCCCCCCCCCC(=O)O [Pentadecylic acid 15:0, Pentadecylic acid]
log reduction at 1000 µM [2, 7]: 0.5
Inhibits growth of Neisseria gonorrhoeae [1]: Yes

O=C(O)CCCCCC(=O)O [Pimelic acid]
Inhibits growth of Neisseria gonorrhoeae [1]: No

CCCCCC[C@@H](O)C/C=C\CCCCCCCC(=O)O [Ricinoleic acid]
log reduction at 1000 µM [2, 7]: 3.5
Inhibits growth of Neisseria gonorrhoeae [1]: Yes

O=C(O)CCCCCCCCC(=O)O [Sebacic acid]
Inhibits growth of Neisseria gonorrhoeae [1]: No

CCCCCCCCCCCCCC(=O)[O-].[Na+] [Sodium myristate]
Log reduction of Neisseria gonorrhoeae [2, 9]: 0.5
Inhibits growth of Neisseria gonorrhoeae [1]: Yes

C/C=C/C=C/C(=O)O [Sorbic acid 6:2 tΔ2,4, Sorbic acid]
Inhibits growth of Neisseria gonorrhoeae [1]: No

CCCCCCCCCCCCCCCCCC(=O)O [Stearic acid 18:0, Stearic acid]
Inhibits growth of Neisseria gonorrhoeae [1]: No

O=C(O)CCCCCCC(=O)O [Suberic acid]
Inhibits growth of Neisseria gonorrhoeae [1]: No

O=C(O)CCC(=O)O [Succinic acid]
Inhibits growth of Neisseria gonorrhoeae [1]: No

CCCCCCCCCCC(=O)O [Undecanoic acid 11:0, Undecanoic acid]
log reduction at 1000 µM [2, 7]: 0.2
Inhibits growth of Neisseria gonorrhoeae [1]: Yes

CCCCCC/C=C/CCCCCCCCCC(=O)O [trans-Vaccenic acid 18:1 tΔ11, trans-Vaccenic acid]
Inhibits growth of Neisseria gonorrhoeae [1]: No
